The values that follow come from patent US9353101B2 (Merck Sharp & Dohme Corp., priority 2012, dated 2016).

In data set [1] the target is CETP (Homo sapiens (Human), UniProt P11597). The experiment in a line: Scintillation Proximity Assay (SPA) for CETP Activity. The following applies: 15 nM CETP, biotinylated LDL, 3H-cholesterol ester HDL; read-out: SPA IC50 (CETP Inhibition). It counts as biochemical. The method, then:
Protocol: Scintillation Proximity Assay (SPA) for CETP Activity
First, low density lipoprotein (LDL) (Meridian) was biotinylated by incubating LDL with biotin for 1 hour on ice, after which it was dialyzed to remove free biotin. Then compounds at varying concentrations were incubated with 15 nM CETP (reagent production group, In Vitro Pharmacology, MRL Rahway) and 50 ug/ml of the biotinylated LDL in 50 mM HEPES, 150 mM NaCl, pH 7.4, for 1 hour at 37° C. The reaction was started by adding ^3H-cholesterol ester high density lipoprotein (HDL) (American Radiochemicals Corp) at a concentration of ˜0.6 nM. The reaction proceeded for 2 hours at 37° C., after which time it was quenched by the addition of 12% acetic acid. PVT streptavadin-coated scintillation proximity beads, which had been brought to room temperature, were then added at a concentration of 4 mg/ml. The assay was then mixed and counted after one half hour in a Microbeta plate reader.

For data set [2] the following is noted: cited from earlier work.
The conditions of data set [3]: patients given torcetrapib and atorvastatin concomitantly compared with atorvastatin alone; cited from earlier work.
[4] abbreviates: patients, anacetrapib with baseline statin therapy compared with just a statin.

Each structure is given as a SMILES string.

CETP, sequence (P11597 18-493): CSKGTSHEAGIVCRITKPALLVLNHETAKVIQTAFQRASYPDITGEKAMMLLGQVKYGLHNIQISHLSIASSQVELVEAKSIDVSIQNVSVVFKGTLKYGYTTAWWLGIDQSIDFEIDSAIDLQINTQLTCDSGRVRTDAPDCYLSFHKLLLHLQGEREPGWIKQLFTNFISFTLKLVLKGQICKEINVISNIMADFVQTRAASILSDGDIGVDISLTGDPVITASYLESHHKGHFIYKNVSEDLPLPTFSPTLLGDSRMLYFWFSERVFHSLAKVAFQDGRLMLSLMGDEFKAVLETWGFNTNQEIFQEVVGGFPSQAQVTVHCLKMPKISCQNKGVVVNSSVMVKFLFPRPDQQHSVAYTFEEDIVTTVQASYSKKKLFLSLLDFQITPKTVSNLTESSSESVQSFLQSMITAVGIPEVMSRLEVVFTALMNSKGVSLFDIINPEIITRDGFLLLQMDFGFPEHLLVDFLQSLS

Broadly, the IC50 is the point on the concentration scale where inhibition reaches its midpoint. On to `COc1ncc(C2CC2)cc1-c1cnc(N2CCOCC2)nc1CN1C(=O)O[C@H](c2cc(C(F)(F)F)cc(C(F)(F)F)c2)[C@@H]1C` [Example 12, (4S,5R)-5-(3,5-Bis(trifluoromethyl)phenyl)-3-((5-(5-cyclopropyl-2-methoxypyridin-3-yl)-2-morpholinopyrimidin-4-yl)methyl)-4-methyloxazolidin-2-one], for which, in data set [1], the IC50 came out at 530 nM.
On the same count and under the same terms, the value for `COc1ncc(Cl)cc1-c1cnc(N2CC(F)C2)nc1CN1C(=O)O[C@H](c2cc(F)cc(F)c2)[C@@H]1C` [Example 13, (4S,5R)-3-{[5-(5-Chloro-2-methoxypyridin-3-yl)-2-(3-fluoroazetidin-1-yl)pyrimidin-4-yl]methyl}-5-(3,5-difluorophenyl)-4-methyl-1,3-oxazolidin-2-one] was 728 nM.
Take `COc1ncc(C(C)C)cc1-c1cnc(N2CCOCC2)nc1CN1C(=O)O[C@H](c2cc(C(F)(F)F)cc(C(F)(F)F)c2)[C@@H]1C` [Example 15, (4S,5R)-5-[3,5-Bis(trifluoromethyl)phenyl]-3-{[5-(5-isopropyl-2-methoxypyridin-3-yl)-2-(morpholin-4-yl)pyrimidin-4-yl]methyl}-4-methyl-1,3-oxazolidin-2-one]: in data set [1], the IC50 amounted to 229 nM.
As for `COc1cc(F)c(C(C)C)cc1-c1ccc(C(F)(F)F)cc1CN1C(=O)O[C@H](c2cc(C(F)(F)F)cc(C(F)(F)F)c2)[C@@H]1C` [anacetrapib], in data set [2] (patients treated with anacetrapib), the increase in mortality result was “unlikely”. In addition, in data set [2] (setting [4]), the “decrease of LDL-C” value is reported as 40% and the “increase of HDL-C” value was 138%.
On to `CCOC(=O)N1c2ccc(C(F)(F)F)cc2[C@@H](N(Cc2cc(C(F)(F)F)cc(C(F)(F)F)c2)C(=O)OC)C[C@H]1CC` [torcetrapib], for which, in data set [3], the incidence of mortality entry is “higher incidence of mortality”.
